Data taken from ChEMBL document CHEMBL1201862, “PubChem BioAssay data set” (2004).
The source made the active and inactive calls.

How the values were obtained:
[1] = molecular target: Peroxisome proliferator-activated receptor gamma/Nuclear receptor coactivator 3 (Homo sapiens, UniProt P37231); test: (§1) TR-FRET dose response biochemical High Throughput Screening assay for agonists of the steroid receptor coactivator 3 (SRC-3) recruitment by the peroxisome proliferator-activated receptor gamma (PPAR gamma): non-selective agonists. [Related pubchem assays: 1301 (Confirmation screen.), 1048 (Primary screen.)]; type: functional
[2] = molecular target: Photoreceptor-specific nuclear receptor (Homo sapiens, UniProt Q9Y5X4); type: functional;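 note: potency for compounds that break the NR2E3 corepressor complex and count as activators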
[3] = molecular target: Peroxisome proliferator-activated receptor gamma/Nuclear receptor corepressor 2 (Homo sapiens, UniProt P37231+Q9Y618); type: functional
[4] = molecular target: Peroxisome proliferator-activated receptor gamma/Nuclear receptor coactivator 1 (Homo sapiens, UniProt P37231); test: as §1, with “1 (SRC-1)” for “3 (SRC-3)”, “assays (depositor defined):AID1300, AID1808, AID504735, AID631]” for “assays: 1301 (Confirmation screen.), 1048 (Primary screen.)]”; type: protein assay
[5] = molecular target: Peroxisome proliferator-activated receptor gamma/Nuclear receptor coactivator 2 (Homo sapiens, UniProt P37231); test: TR-FRET dose response biochemical High Throughput Screening assay for agonists of the steroid receptor coactivator 2 (SRC-2) recruitment by the peroxisome proliferator-activated receptor gamma (PPAR gamma): non-selective agonists. [Related pubchem assays: 1297, 1032 ]; type: functional
BJ [6] = test: BJ-TERT fibroblast viability loss – cell-based, RAS-independent, luminescence, dose response (AID 1933); type: functional; conditions: Homo sapiens
INS1 = test: INS-1E survival protection against cytokine death – cell-based, luminescence, retest, dose response (AID 449756); type: functional; conditions: Rattus norvegicus;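 note: cell death triggered by IL-1 beta plus TNF-alpha plus IFN-gamma mixture; protective hits raise ATP signal compared with cytokine alone wells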
[7] = DRD fibroblast viability loss – cell-based, non-viral oncogenic, luminescence, dose response (AID 1934); type: functional; conditions: Homo sapiens
[8] = bead-based luminescence quenchers, dual-tagged ARNT – biochemical, AlphaScreen, cherry-pick, artefact control for ARNT-TACC3 interaction inhibitor project, dose response (AID 651705); type: functional;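 note: AlphaScreen bead proximity signal that flags compounds interfering with the detection technology; potency reflects signal decrease which marks the compound as an assay artifact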
[9] = molecular target: Serine/threonine-protein phosphatase PP1-alpha catalytic subunit (Homo sapiens, UniProt P62136); test: inhibition of protein phosphatase 1 activity – biochemical, fluorescence, dose response (AID 2403);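 note: phosphatase turnover of OMFP into fluorescent 3-O-methylfluorescein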
HEK293 = test: EBV LMP1 TES2 canonical NF-kB signalling blockers – cell-based, HEK293, luciferase, cherry-pick, dose response (AID 588343); type: functional; conditions: Homo sapiens
[10] = system: Streptococcus sp. 'group A'; test: Streptococcus pyogenes SK(-)GAS viability under kanamycin – luminescence, BacTiterGlo, confirmation, counter-screen for streptokinase expression inhibitor project, dose response (AID 1900); type: functional, organism-based
[11] = Luminescent dose response cell-based high throughput screening assay for inhibitors of the Janus kinase 2 mutant JAK2V617F. [Related pubchem assays: 1446 (Primary screen.), 1521 (Confirmation assay.), 1486 (Counter screen.)]; type: functional
[12] = MIN6 cell viability loss – mouse insulinoma, cytotoxicity control, dose response (AID 2122); type: functional;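 note: confirmatory high-throughput counterscreen run to flag cytotoxic compounds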
Streptococcus = test: GAS UMAA2166 growth inhibition – luminescence, BacTiterGlo, counter-screen for streptokinase expression inhibitor project, dose response (AID 1915); type: functional, organism-based;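 note: potency for reduction of bacterial viability or growth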
BJ [13] = test: BJ-TERT-LT-ST fibroblast viability loss – cell-based, RAS-independent, luminescence, dose response (AID 1935); type: functional; conditions: Homo sapiens;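 note: BJ fibroblasts immortalized with TERT plus LT and ST oncogenes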
[14] = molecular target: T1, Serine/threonine-protein phosphatase (Homo sapiens, UniProt Q9BPW0); test: Counterscreen for inhibitors of PP1: fluorescence-based biochemical high throughput dose response assay to identify inhibitors of Protein Phosphatase 5 (PP5). [Related pubchem assays: 2034 (Summary (PP5 inhibitors)), 1987 (PP5 inhibitors in singlate), 2235 (PP1 inhibitors in singlate)]
T1 sequence (Q9BPW0 whole entry): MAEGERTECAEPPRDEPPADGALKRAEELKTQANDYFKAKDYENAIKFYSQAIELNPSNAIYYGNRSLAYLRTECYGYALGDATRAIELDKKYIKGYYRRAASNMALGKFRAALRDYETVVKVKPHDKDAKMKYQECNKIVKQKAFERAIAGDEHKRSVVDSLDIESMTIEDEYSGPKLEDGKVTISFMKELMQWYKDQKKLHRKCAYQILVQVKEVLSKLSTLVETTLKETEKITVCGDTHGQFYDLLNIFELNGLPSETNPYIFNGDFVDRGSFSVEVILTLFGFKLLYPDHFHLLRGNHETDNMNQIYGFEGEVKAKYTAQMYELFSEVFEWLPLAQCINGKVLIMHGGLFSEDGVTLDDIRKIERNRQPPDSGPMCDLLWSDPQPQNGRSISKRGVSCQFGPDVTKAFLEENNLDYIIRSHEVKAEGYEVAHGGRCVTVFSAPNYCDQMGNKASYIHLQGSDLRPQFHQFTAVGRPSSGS

BJ [15] = test: cells; type: functional, cell-based; conditions: Homo sapiens
[16] = decrease of insulin promoter-GFP reporter – imaging, high-content screening, mouse beta cells (AID 1628); type: functional; conditions: MIN6
[17] = molecular target: T2, Alkaline phosphatase, tissue-nonspecific isozyme (Homo sapiens, UniProt P05186)
T2 sequence (P05186 whole entry): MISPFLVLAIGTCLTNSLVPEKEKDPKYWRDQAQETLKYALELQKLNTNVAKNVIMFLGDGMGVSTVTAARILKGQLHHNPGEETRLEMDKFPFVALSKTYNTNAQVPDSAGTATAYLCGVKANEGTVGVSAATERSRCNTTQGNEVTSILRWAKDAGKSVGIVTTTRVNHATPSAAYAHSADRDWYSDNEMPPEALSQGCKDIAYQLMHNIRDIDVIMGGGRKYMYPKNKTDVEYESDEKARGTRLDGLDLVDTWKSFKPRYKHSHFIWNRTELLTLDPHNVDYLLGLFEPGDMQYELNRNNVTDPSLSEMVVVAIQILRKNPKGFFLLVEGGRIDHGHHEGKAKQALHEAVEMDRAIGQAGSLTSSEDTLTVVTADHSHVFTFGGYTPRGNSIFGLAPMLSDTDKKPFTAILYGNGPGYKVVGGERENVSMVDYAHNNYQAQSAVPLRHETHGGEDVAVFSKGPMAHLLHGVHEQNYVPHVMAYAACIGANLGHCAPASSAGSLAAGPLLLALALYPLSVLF

[18] = A cytotoxicity screen of small molecule inhibitors of the PhoP region in Salmonella typhi identified in the primary screen. [Related pubchem assays: 1850, 1864, 1985 ]; type: functional
Wee1-like protein kinase = Wee1-like protein kinase (Homo sapiens, UniProt P30291); test: Dose Response Cell-based Assay for Inhibitors of Wee1 Degradation. [Related pubchem assays: 1410, 1321 ]; type: functional
Streptokinase A = molecular target: T3, Streptokinase A (Streptococcus pyogenes serotype M1, UniProt P10520); test: viability-normalized secreted streptokinase activity reduction – plasminogen activation absorbance, OD405, dose response (AID 1914); type: functional, Streptococcus pyogenes M1 GAS;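 note: secreted streptokinase activity via plasminogen activation per viability signal from cell pellet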
T3 sequence (P10520 whole entry): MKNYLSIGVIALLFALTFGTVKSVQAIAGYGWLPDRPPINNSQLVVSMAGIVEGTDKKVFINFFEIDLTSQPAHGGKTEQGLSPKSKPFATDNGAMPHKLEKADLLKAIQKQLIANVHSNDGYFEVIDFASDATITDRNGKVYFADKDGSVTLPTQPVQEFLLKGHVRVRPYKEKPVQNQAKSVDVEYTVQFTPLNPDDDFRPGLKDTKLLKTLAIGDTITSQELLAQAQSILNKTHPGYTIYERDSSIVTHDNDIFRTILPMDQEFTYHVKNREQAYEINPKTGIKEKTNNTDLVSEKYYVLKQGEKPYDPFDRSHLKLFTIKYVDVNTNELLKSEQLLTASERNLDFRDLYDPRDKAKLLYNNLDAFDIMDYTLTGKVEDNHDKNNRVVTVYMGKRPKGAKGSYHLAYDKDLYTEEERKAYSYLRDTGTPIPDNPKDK

[19] = molecular target: G2/mitotic-specific cyclin-B1 (Homo sapiens, UniProt P14635); test: Counterscreen assay for inhibitors of Wee1 degradation: dose response cell-based assay to identify inhibitors of cyclin B degradation. [Related pubchem assays: 1410, 1321 ]; type: functional
Cytochrome P450 2D6 = Cytochrome P450 2D6 (Homo sapiens, UniProt P10635); test: qHTS Assay for Inhibitors and Substrates of Cytochrome P450 2D6. [Related pubchem assays: 410 ]; type: ADME; conditions: read-out: Potency
[20] = molecular target: T4, Dual specificity protein phosphatase 6 (Rattus norvegicus, UniProt Q64346)
T4 sequence (Q64346 whole entry): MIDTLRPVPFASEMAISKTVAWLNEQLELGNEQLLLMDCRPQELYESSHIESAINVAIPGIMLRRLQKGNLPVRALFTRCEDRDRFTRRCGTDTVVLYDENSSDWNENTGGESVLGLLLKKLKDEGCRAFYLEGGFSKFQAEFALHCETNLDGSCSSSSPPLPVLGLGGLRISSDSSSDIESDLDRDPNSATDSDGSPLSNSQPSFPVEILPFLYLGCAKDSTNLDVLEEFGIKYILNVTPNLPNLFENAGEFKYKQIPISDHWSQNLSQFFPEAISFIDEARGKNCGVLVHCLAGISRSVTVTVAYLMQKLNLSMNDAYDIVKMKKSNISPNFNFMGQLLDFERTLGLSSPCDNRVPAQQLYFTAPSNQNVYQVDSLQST

[21] = molecular target: T4, Dual specificity protein phosphatase 6; type: functional
[22] = molecular target: T5, Tyrosine-protein phosphatase non-receptor type 7 (Homo sapiens, UniProt P35236); type: functional
T5 sequence (P35236 whole entry): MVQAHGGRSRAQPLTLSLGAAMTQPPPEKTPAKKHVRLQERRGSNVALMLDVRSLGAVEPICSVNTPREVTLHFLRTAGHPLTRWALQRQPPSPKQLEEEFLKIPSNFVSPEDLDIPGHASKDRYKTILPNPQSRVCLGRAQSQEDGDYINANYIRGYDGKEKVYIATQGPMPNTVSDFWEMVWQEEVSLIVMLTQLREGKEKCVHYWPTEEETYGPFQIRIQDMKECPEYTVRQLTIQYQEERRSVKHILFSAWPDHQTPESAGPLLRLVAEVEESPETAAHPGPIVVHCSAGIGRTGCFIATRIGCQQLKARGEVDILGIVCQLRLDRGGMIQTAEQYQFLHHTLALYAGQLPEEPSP

[23] = molecular target: Glyceraldehyde-3-phosphate dehydrogenase (Homo sapiens, UniProt P04406)
[24] = molecular target: T6, Rac GTPase-activating protein 1 (Homo sapiens, UniProt Q9H0H5); test: blockers of MgcRacGAP-driven Rac1 GTP hydrolysis – biochemical, ADP Hunter fluorescence, primary and confirmatory, confirmation (AID 624330); type: functional
T6 sequence (Q9H0H5 whole entry): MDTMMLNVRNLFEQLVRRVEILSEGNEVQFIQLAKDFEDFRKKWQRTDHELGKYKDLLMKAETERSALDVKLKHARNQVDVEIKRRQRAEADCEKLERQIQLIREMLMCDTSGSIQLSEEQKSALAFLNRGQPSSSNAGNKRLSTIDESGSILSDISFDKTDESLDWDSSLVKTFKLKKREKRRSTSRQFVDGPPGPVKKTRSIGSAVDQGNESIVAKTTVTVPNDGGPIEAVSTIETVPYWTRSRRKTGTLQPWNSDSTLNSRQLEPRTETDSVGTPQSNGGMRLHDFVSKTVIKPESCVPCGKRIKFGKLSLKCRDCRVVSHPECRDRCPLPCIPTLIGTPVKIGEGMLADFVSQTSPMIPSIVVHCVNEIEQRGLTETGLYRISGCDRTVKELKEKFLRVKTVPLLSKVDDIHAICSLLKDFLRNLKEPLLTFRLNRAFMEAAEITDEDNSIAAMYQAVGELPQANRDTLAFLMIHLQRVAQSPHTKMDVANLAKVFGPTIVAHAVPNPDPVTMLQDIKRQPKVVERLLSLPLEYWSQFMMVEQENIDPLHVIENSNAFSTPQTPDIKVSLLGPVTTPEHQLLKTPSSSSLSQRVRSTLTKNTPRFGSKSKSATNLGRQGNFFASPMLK

[25] = molecular target: Melanin-concentrating hormone receptor 1 (Homo sapiens, UniProt Q99705); test: Fluorescence-based counterscreen for antagonists of the G-protein coupled receptor 7 (GPR7): cell-based high throughput dose response assay to identify antagonists of the melanin-concentrating hormone receptor 1 (MCHR1).; type: functional
[26] = molecular target: Neuropeptides B/W receptor type 1 (Homo sapiens, UniProt P48145); test: Fluorescence-based dose response cell-based high throughput screening assay to identify antagonists of the G-protein coupled receptor 7 (GPR7). [Related pubchem assays: 1952 (Screening assay (GPR7 antagonists).), 1880 (Summary AID.)]; type: functional
Chain of Neuropeptides B/W receptor type 1 (P48145 whole entry): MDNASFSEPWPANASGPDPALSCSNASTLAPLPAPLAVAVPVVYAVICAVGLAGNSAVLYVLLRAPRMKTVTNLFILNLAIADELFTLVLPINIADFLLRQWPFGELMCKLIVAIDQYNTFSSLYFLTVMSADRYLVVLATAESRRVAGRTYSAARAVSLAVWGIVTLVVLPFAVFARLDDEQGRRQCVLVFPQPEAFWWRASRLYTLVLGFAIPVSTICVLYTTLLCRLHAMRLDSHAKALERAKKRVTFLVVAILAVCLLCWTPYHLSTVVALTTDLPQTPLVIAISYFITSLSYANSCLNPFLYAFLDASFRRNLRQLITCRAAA

Chain of Cytochrome P450 2D6 (P10635 whole entry): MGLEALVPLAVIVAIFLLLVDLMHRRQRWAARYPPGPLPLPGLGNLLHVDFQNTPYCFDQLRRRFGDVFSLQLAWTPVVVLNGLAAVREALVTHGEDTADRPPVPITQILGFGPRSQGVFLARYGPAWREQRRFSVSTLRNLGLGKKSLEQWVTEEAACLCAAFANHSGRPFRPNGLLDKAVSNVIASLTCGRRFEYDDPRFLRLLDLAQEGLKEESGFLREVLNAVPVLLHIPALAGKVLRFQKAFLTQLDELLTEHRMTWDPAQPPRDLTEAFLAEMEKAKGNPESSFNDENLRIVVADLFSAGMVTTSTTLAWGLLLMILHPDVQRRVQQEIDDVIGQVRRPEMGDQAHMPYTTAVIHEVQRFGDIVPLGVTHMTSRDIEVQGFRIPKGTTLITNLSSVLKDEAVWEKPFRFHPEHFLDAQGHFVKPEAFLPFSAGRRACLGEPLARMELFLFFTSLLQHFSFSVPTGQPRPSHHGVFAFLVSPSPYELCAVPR
Chain of Melanin-concentrating hormone receptor 1 (Q99705 whole entry): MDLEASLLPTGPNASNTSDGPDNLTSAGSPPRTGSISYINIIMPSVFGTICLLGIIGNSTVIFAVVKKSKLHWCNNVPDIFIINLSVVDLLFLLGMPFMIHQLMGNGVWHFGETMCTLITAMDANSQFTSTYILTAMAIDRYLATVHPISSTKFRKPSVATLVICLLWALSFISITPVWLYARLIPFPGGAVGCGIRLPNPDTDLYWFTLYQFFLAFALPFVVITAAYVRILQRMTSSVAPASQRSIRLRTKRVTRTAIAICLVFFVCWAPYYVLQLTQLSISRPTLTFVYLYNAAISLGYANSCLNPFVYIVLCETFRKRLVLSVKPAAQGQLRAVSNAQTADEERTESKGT
Chain of Glyceraldehyde-3-phosphate dehydrogenase (P04406 whole entry): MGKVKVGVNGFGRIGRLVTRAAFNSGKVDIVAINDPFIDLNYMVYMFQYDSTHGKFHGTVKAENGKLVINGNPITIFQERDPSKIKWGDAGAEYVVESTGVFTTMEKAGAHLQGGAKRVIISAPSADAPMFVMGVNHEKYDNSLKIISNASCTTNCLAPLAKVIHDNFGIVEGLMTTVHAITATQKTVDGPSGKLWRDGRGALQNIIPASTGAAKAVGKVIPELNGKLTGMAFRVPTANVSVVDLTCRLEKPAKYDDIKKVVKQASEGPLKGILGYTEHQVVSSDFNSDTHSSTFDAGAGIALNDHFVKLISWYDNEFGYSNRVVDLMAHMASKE
Chain of Serine/threonine-protein phosphatase PP1-alpha catalytic subunit (P62136 whole entry): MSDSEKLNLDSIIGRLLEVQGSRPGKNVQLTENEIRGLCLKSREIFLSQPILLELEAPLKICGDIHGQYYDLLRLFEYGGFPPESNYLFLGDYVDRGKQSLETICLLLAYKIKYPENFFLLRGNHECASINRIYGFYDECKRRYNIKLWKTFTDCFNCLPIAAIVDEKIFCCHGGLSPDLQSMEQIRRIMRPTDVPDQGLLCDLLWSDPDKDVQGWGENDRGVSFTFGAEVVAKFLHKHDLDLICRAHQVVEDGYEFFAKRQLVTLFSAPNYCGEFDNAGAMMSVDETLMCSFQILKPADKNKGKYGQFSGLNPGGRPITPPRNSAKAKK
Chain of G2/mitotic-specific cyclin-B1 (P14635 whole entry): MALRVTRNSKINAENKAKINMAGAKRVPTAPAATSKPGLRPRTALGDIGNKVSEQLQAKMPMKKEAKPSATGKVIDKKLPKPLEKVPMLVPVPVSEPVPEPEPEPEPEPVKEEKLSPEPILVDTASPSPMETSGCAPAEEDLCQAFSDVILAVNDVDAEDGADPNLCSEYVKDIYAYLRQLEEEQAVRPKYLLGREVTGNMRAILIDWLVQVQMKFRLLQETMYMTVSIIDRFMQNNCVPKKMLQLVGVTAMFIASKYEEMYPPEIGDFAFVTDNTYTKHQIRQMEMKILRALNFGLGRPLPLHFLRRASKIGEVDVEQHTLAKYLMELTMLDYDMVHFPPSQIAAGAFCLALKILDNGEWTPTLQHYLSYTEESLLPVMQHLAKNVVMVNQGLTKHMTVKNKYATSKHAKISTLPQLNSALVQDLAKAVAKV
Chain of Photoreceptor-specific nuclear receptor (Q9Y5X4 whole entry): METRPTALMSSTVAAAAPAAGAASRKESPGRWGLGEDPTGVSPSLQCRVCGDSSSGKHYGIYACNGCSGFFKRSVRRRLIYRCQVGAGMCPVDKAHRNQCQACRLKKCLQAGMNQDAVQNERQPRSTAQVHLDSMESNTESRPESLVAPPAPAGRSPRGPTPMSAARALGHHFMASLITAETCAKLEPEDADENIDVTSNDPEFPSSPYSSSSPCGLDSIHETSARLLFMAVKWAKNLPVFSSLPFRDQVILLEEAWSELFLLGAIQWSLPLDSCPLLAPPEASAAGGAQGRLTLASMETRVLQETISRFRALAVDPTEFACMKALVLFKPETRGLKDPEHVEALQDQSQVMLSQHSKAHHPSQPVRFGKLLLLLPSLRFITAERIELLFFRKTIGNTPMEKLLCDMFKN
Chain of Wee1-like protein kinase (P30291 whole entry): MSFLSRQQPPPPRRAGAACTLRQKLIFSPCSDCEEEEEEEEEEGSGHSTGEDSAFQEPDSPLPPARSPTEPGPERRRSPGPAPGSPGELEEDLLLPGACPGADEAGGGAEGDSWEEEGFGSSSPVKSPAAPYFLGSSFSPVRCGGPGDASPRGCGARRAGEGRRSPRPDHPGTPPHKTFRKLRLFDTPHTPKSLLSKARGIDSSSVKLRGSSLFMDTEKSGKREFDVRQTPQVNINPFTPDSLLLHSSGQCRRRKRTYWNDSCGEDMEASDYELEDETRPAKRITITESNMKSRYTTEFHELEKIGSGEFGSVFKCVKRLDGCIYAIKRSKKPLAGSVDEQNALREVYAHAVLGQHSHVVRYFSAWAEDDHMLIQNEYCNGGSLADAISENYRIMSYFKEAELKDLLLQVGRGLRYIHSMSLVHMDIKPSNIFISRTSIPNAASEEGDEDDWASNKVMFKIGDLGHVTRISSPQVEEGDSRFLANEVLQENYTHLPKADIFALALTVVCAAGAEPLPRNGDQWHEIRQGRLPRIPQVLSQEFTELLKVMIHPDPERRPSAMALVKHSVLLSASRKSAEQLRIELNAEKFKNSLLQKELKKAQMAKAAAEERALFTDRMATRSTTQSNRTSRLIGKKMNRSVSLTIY

SMILES: CCN(CC)CCCN1C(=O)C(O)=C(C(=O)c2cc3ccccc3o2)C1c1ccccn1 (stereo not drawn)
- EC50 [1]: > 79.4 µM (not active)
- IC50 [2]: > 39.8 µM (not active)
- IC50 [3]: 4.13 µM (active)
- EC50 [4]: > 79.4 µM (inactive)
- EC50 [5]: 35.7 µM (not active)

SMILES: c1ccc(CCNc2nc(-c3ccccn3)nc3ccccc23)cc1
- EC50 (BJ [6]): 3.18 µM (active)
- AC50 (INS1): 1.63 µM (active)
- EC50 [7]: 15.9 µM (inconclusive)
- AC50 [8]: 125 µM (active)
- IC50 [9]: 6.27 µM (active)
- AC50 (HEK293): 1.24 µM (active)
- EC50 [10]: 0.916 µM (active)
- IC50 [11]: 1.77 µM (active)
- IC50 [12]: 1.21 µM (active)
- EC50 (Streptococcus): 2.33 µM (active)
- EC50 (BJ [13]): 51.1 µM (inconclusive)
- IC50 [14]: 49.3 µM (not active)
- EC50 (BJ [15]): 28.9 µM (active)
- IC50 [16]: 1.96 µM (active)

SMILES: Cc1ccn2cc(C(=O)Nc3nnc(C)s3)nc2c1
- EC50 [17]: > 100 µM (not active)
- EC50 [18]: > 50 µM (active)

SMILES: O=C(Nc1ccc(Cl)c(Cl)c1)Nc1nccs1
- EC50 (BJ [6]): 3.87 µM (active)
- EC50 (Wee1-like protein kinase): > 49.7 µM (not active)
- EC50 (Streptokinase A): > 150 µM (not active)
- EC50 [7]: 3.33 µM (active)
- EC50 [10]: 8.23 µM (active)
- EC50 [19]: > 49.7 µM (not active)
- EC50 (Streptococcus): 15.4 µM (active)
- EC50 (BJ [13]): 3.25 µM (inconclusive)
- EC50 (BJ [15]): 46.2 µM (active)

SMILES: COc1cccc2oc(-c3ccc(O)cc3)cc(=O)c12
- AC50 (Cytochrome P450 2D6): 15.8 µM (inconclusive)

SMILES: Cc1cc(NC(=O)c2cccs2)no1
- IC50 [20]: > 100 µM (inactive)
- IC50 [21]: > 100 µM (inactive)
- IC50 [22]: > 100 µM (not active)
- IC50 [23]: 50.1 µM (active)

SMILES: CCOc1ccccc1NC(=O)C(NCC1(N2CCCCC2)CCCCC1)c1ccccc1 (stereo not drawn)
- IC50 [24]: 139 µM (active)
- IC50 [25]: > 14.6 µM (not active)
- IC50 [26]: > 14.6 µM (not active)
